pEC50: −log10 of the molar value. Where two headings read alike, the source gives them in different places.

Drawing on patent US9168259B2 (GRÜNENTHAL GMBH, priority 2010, dated 2015), this text covers Emax and EC50 for 29 molecules.

The target of this experiment is T1, KCNQ2/3 channels (Homo sapiens, UniProt O43525+O43526).
T1 construct: expressed in transfected cells
Description: Fluorescence assay using a voltage sensitive dye (fluorimetry). The class given is cell-based.

The mark [1] stands for this setting: CHO-K1, plateau effect relative to saturated retigabine (50 μM) = 100%, CHO-K1 cells expressing KCNQ2/3, negative values = antagonistic, read-out: Fluorimetry % efficacy (retigabine = 100%).
The mark [2] stands for this setting: CHO-K1 cells expressing KCNQ2/3, IC50 where % efficacy is negative, read-out: Fluorimetry EC50/IC50.

T1 sequence (O43526 whole entry): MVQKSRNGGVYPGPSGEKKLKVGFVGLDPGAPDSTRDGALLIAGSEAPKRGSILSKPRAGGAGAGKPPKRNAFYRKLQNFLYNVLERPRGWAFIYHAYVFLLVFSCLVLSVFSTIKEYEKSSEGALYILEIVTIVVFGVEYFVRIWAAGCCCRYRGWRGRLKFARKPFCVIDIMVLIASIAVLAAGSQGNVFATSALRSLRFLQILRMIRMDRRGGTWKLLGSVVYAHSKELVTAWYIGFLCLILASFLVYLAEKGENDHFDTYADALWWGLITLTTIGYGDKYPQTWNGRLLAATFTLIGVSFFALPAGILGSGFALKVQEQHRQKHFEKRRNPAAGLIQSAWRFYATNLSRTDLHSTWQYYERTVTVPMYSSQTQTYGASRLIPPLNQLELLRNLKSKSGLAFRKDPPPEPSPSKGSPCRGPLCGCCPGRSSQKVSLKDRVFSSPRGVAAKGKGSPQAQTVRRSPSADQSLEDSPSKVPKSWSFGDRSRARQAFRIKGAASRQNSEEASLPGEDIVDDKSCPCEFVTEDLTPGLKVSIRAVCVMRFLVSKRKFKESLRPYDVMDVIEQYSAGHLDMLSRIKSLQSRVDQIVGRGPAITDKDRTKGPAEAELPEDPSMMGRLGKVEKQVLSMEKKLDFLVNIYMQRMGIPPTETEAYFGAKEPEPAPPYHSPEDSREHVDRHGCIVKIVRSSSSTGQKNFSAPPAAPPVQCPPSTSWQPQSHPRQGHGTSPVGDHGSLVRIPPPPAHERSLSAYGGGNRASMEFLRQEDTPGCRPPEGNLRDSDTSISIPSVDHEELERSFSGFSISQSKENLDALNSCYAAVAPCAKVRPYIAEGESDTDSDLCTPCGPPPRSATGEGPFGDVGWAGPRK
T1 sequence (O43525 whole entry): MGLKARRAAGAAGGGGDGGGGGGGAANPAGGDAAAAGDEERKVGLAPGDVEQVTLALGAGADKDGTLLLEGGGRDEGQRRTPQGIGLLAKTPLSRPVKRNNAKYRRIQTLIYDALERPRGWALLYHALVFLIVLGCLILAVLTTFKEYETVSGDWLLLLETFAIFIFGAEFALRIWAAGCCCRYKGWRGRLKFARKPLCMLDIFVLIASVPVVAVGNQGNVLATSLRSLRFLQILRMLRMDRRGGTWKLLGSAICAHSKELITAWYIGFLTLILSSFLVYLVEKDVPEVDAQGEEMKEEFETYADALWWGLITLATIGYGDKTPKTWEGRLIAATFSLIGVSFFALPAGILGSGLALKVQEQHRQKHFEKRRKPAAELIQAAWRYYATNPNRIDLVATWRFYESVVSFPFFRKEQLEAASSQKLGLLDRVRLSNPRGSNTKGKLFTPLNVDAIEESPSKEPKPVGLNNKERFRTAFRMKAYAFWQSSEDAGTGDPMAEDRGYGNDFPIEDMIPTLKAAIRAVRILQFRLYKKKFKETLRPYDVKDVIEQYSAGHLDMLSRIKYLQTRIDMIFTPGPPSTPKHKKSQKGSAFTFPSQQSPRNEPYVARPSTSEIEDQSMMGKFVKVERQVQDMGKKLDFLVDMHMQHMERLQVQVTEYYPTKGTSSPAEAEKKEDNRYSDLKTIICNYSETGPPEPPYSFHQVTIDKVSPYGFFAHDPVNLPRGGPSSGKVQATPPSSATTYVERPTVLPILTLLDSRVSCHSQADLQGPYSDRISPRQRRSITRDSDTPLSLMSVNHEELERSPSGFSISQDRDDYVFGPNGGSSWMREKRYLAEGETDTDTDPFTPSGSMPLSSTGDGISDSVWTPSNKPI

Turning to `Cc1cc(N2CCOC[C@H]2C)nc(C2CC2)c1C(=O)NCc1ccc(Cl)cc1` [Example 282, N-[(4-Chlorophenyl)-methyl]-2-cyclopropyl-4-methyl-6-[(3R)-3-methyl-morpholin-4-yl]-pyridine-3-carboxylic acid amide], under setting [1], the Emax is 182%. The pEC50 under setting [2] is 7.40.

Turning to `COC[C@@H]1CN(c2cc(C)c(C(=O)NCc3ccc(Cl)cc3)c(C(C)C)n2)CCO1` [Example 285, N-[(4-Chlorophenyl)-methyl]-2-isopropyl-6-[(2S)-2-(methoxymethyl)-morpholin-4-yl]-4-methyl-pyridine-3-carboxylic acid amide], the Emax under setting [1] amounted to 126%. Further, the pEC50 under setting [2] was 6.80.

Consider `CCSc1nc(N2CCO[C@@H](C)C2)cc(C)c1C(=O)NCCCC(C)(C)C` [Example 274, N-(4,4-Dimethyl-pentyl)-2-ethylsulfanyl-4-methyl-6-[(2S)-2-methyl-morpholin-4-yl]-pyridine-3-carboxylic acid amide], for which the Emax under setting [1] is 217%. The pEC50 under setting [2] is 6.63.

As for `CCSc1nc(N2CCOCC2)cc(C)c1C(=O)NCC(=O)CC(C)(C)C` [Example 324, N-(4,4-Dimethyl-2-oxo-pentyl)-2-ethylsulfanyl-4-methyl-6-morpholin-4-yl-pyridine-3-carboxylic acid amide], under setting [1], the Emax came out at 166%. For the same molecule, the pEC50 under setting [2] was 6.08.

Turning to `CCSc1nc(N2CCOCC2)cc(C)c1C(=O)NCc1ccc(N(C)C)cc1` [Example 148, N-[(4-Dimethylaminophenyl)-methyl]-2-ethylsulfanyl-4-methyl-6-morpholin-4-yl-pyridine-3-carboxylic acid amide], the Emax under setting [1] worked out at 105%. The pEC50 under setting [2] was 5.44.

`CCSc1nc(N2CCOCC2)cc(C)c1C(=O)NCc1ccc(COC)cc1` [Example 146, 2-Ethylsulfanyl-N-[[4-(methoxymethyl)-phenyl]-methyl]-4-methyl-6-morpholin-4-yl-pyridine-3-carboxylic acid amide]: the Emax under setting [1] came to 159%. Further, the pEC50 under setting [2] was 5.60.

`COCc1ccc(CNC(=O)c2c(C)cc(N3CCOCC3)nc2C2CC2)cc1F` [Example 355, 2-Cyclopropyl-N-[[3-fluoro-4-(methoxymethyl)-phenyl]methyl]-4-methyl-6-morpholin-4-yl-pyridine-3-carboxylic acid amide]: the Emax under setting [1] amounted to 167%. In addition, under setting [2], the pEC50 is 6.14.

With `CCSc1nc(N2CCOCC2)cc(C)c1C(=O)NCc1ccc(F)c(C)c1` [Example 201, 2-Ethylsulfanyl-N-[(4-fluoro-3-methyl-phenyl)-methyl]-4-methyl-6-morpholin-4-yl-pyridine-3-carboxylic acid amide], the Emax under setting [1] is 127%. In addition, under setting [2], the pEC50 was 6.87.

On to `CCCc1nc(N2CCOCC2)cc(C)c1C(=O)NCc1ccc(F)cc1` [Example 29, N-[(4-Fluorophenyl)-methyl]-4-methyl-6-morpholin-4-yl-2-propyl-pyridine-3-carboxylic acid amide], for which, under setting [1], the Emax was determined as 185%. Also, under setting [2], the pEC50 was 6.63.

On to `CCSc1nc(N2CCc3nc(C(F)(F)F)ccc3C2)cc(C)c1C(=O)NCc1cccc(F)c1` [Example 232, 2-Ethylsulfanyl-N-[(3-fluorophenyl)-methyl]-4-methyl-6-[2-(trifluoromethyl)-5,6,7,8-tetrahydro-[1,6]naphthyridin-6-yl]-pyridine-3-carboxylic acid amide], for which the Emax under setting [1] worked out at 131%. In addition, the pEC50 under setting [2] was 6.95.

`CCSc1nc(N2CCOCC2)cc(C)c1C(=O)NCc1ccc(F)cc1-c1ccc(F)cc1` [Example 85, 2-Ethylsulfanyl-N-[[4-fluoro-2-(4-fluorophenyl)-phenyl]-methyl]-4-methyl-6-morpholin-4-yl-pyridine-3-carboxylic acid amide]: the Emax under setting [1] is -61%. Also, under setting [2], the pEC50 is 6.97.

As to `CCSc1nc(N2CCOCC2)cc(C)c1C(=O)NCc1ccc(C)cc1` [Example 161, 2-Ethylsulfanyl-4-methyl-6-morpholin-4-yl-N-(p-tolyl-methyl)-pyridine-3-carboxylic acid amide], the Emax under setting [1] is 143%. Further, under setting [2], the pEC50 was 6.44.

Turning to `COCc1nc(N2CCOCC2)cc(C)c1C(=O)NCc1cccc(F)c1` [Example 356, N-[(3-Fluorophenyl)-methyl]-2-(methoxymethyl)-4-methyl-6-morpholin-4-yl-pyridine-3-carboxylic acid amide], the Emax under setting [1] was 140%. In addition, the pEC50 under setting [2] is 5.20.

In the case of `CSc1nc(N2CCOCC2)cc(C)c1C(=O)NCCCC(F)(F)F` [Example 153, 4-Methyl-2-methylsulfanyl-6-morpholin-4-yl-N-(4,4,4-trifluoro-butyl)-pyridine-3-carboxylic acid amide], under setting [1], the Emax worked out at 210%. Besides, the pEC50 under setting [2] is 6.17.

`CCSc1nc(N2CCOCC2)cc(C)c1C(=O)NCC(O)Cc1ccccc1` (stereo not drawn) [Example 202, 2-Ethylsulfanyl-N-(2-hydroxy-3-phenyl-propyl)-4-methyl-6-morpholin-4-yl-pyridine-3-carboxylic acid amide]: the Emax under setting [1] is 129%. The pEC50 under setting [2] is 5.22.

Turning to `CCSc1nc(N2CC3(COC3)C2)cc(C)c1C(=O)NCc1cccc(F)c1` [Example 151, 2-Ethylsulfanyl-N-[(3-fluorophenyl)-methyl]-4-methyl-6-(6-oxa-2-azaspiro[3.3]heptan-2-yl)-pyridine-3-carboxylic acid amide], the Emax under setting [1] turned out to be 92%. The pEC50 under setting [2] is 4.92.

As for `CSc1nc(N2CCOCC2)cc(C)c1C(=O)NCCCC(C)(C)C` [Example 152, N-(4,4-Dimethyl-pentyl)-4-methyl-2-methylsulfanyl-6-morpholin-4-yl-pyridine-3-carboxylic acid amide], the Emax under setting [1] was 249%. Also, the pEC50 under setting [2] is 7.20.

As to `CCSc1nc(N2CCOC(CCOC)C2)cc(C)c1C(=O)NCc1cccc(F)c1` (stereo not drawn) [Example 229, 2-Ethylsulfanyl-N-[(3-fluorophenyl)-methyl]-6-[2-(2-methoxy-ethyl)-morpholin-4-yl]-4-methyl-pyridine-3-carboxylic acid amide], under setting [1], the Emax is 132%. In addition, under setting [2], the pEC50 was 6.14.

Take `CCSc1nc(N2CCOCC2)cc(C)c1C(=O)NCc1cccc(OC(F)(F)F)c1` [Example 130, 2-Ethylsulfanyl-4-methyl-6-morpholin-4-yl-N-[[3-(trifluoromethyloxy)-phenyl]methyl]-pyridine-3-carboxylic acid amide]: the Emax under setting [1] was determined as 148%. Besides, the pEC50 under setting [2] is 7.13.

With `CCSc1nc(N2CCOC[C@H]2COC)cc(C)c1C(=O)NCc1ccc(F)cc1` [Example 248, 2-Ethylsulfanyl-N-[(4-fluorophenyl)-methyl]-6-[(3R)-3-(methoxymethyl)-morpholin-4-yl]-4-methyl-pyridine-3-carboxylic acid amide], under setting [1], the Emax amounted to 223%. Also, the pEC50 under setting [2] is 6.50.

Turning to `CCSc1nc(N(C)Cc2cccnc2)cc(C)c1C(=O)NCc1cccc(F)c1` [Example 119, 2-Ethylsulfanyl-N-[(3-fluorophenyl)-methyl]-4-methyl-6-[methyl-(pyridin-3-yl-methyl)-amino]-pyridine-3-carboxylic acid amide], under setting [1], the Emax was found to be 91%. Also, the pEC50 under setting [2] is 5.62.

As for `CCSc1nc(N2CCOCC2CC)cc(C)c1C(=O)NCc1cccc(F)c1` (stereo not drawn) [Example 178, 6-(3-Ethyl-morpholin-4-yl)-2-ethylsulfanyl-N-[(3-fluorophenyl)-methyl]-4-methyl-pyridine-3-carboxylic acid amide], the Emax under setting [1] stood at 147%. Further, the pEC50 under setting [2] is 7.27.

With `CCSc1nc(N2CCC3(COC3)C2)cc(C)c1C(=O)NCc1cccc(F)c1` [Example 222, 2-Ethylsulfanyl-N-[(3-fluorophenyl)-methyl]-4-methyl-6-(2-oxa-6-azaspiro[3.4]octan-6-yl)-pyridine-3-carboxylic acid amide], the Emax under setting [1] was determined as 56%. Also, the pEC50 under setting [2] was 5.14.

On to `CCSc1nc(N2CCOCC2)cc(C)c1C(=O)NCc1ccc(F)cc1F` [Example 107, N-[(2,4-Difluoro-phenyl)-methyl]-2-ethylsulfanyl-4-methyl-6-morpholin-4-yl-pyridine-3-carboxylic acid amide], for which the Emax under setting [1] was 90%. The pEC50 under setting [2] was 7.06.

Take `COCCc1nc(N2CCOCC2)cc(C)c1C(=O)NCCCC(C)(C)C` [Example 358, N-(4,4-Dimethyl-pentyl)-2-(2-methoxy-ethyl)-4-methyl-6-morpholin-4-yl-pyridine-3-carboxylic acid amide]: the pEC50 is 5.95. The Emax (CHO-K1, read-out: Fluorimetry % efficacy (retigabine = 100%)) turned out to be 234%.

Regarding `CCSc1nc(N2CCOCC2)cc(C)c1C(=O)NCc1ccc(F)c(CO)c1` [Example 353, 2-Ethylsulfanyl-N-[[4-fluoro-3-(hydroxymethyl)-phenyl]-methyl]-4-methyl-6-morpholin-4-yl-pyridine-3-carboxylic acid amide], the Emax under setting [1] was found to be 46%.

Turning to `CCSc1nc(N2CCOCC2)cc(C)c1C(=O)NCC(O)CC(C)C` (stereo not drawn) [Example 228, 2-Ethylsulfanyl-N-(2-hydroxy-4-methyl-pentyl)-4-methyl-6-morpholin-4-yl-pyridine-3-carboxylic acid amide], under setting [1], the Emax amounted to 180%. Moreover, the pEC50 under setting [2] was 5.61.

On to `CCCCCCNC(=O)c1c(C)cc(N2CCOCC2)nc1SCC` [Example 217, 2-Ethylsulfanyl-N-hexyl-4-methyl-6-morpholin-4-yl-pyridine-3-carboxylic acid amide], for which, under setting [1], the Emax came out at 181%. The pEC50 under setting [2] is 6.39.

Turning to `CCSc1nc(N2CCOCC2)cc(C)c1C(=O)NCc1ccc(F)c(OC)c1` [Example 284, 2-Ethylsulfanyl-N-[(4-fluoro-3-methoxy-phenyl)-methyl]-4-methyl-6-morpholin-4-yl-pyridine-3-carboxylic acid amide], the Emax under setting [1] stood at 94%. Also, the pEC50 under setting [2] was 6.19.
